Measured values taken from ChEMBL document CHEMBL1212811, “Chemical phylogenetics of histone deacetylases” (Nat Chem Biol, 2010).
Counter-ions that a name gives are not always drawn. Calls of active or inactive are those of the source. Peptide text beside a SMILES is read from it. * marks the point of attachment. AMC = Cc1cc(=O)oc2cc(N*)ccc12; Tfa = O=C(C(F)(F)F)*

Key:
[1] = biological target: T1, Protein deacetylase HDAC6 (Homo sapiens) (UniProt Q9UBN7); assay: Inhibition of HDAC6 in human Jurkat cells assessed as hyperacetylation of alpha-tubulin after 24 hrs by immunoblot method; assay type: cell-based
T1 sequence (whole entry): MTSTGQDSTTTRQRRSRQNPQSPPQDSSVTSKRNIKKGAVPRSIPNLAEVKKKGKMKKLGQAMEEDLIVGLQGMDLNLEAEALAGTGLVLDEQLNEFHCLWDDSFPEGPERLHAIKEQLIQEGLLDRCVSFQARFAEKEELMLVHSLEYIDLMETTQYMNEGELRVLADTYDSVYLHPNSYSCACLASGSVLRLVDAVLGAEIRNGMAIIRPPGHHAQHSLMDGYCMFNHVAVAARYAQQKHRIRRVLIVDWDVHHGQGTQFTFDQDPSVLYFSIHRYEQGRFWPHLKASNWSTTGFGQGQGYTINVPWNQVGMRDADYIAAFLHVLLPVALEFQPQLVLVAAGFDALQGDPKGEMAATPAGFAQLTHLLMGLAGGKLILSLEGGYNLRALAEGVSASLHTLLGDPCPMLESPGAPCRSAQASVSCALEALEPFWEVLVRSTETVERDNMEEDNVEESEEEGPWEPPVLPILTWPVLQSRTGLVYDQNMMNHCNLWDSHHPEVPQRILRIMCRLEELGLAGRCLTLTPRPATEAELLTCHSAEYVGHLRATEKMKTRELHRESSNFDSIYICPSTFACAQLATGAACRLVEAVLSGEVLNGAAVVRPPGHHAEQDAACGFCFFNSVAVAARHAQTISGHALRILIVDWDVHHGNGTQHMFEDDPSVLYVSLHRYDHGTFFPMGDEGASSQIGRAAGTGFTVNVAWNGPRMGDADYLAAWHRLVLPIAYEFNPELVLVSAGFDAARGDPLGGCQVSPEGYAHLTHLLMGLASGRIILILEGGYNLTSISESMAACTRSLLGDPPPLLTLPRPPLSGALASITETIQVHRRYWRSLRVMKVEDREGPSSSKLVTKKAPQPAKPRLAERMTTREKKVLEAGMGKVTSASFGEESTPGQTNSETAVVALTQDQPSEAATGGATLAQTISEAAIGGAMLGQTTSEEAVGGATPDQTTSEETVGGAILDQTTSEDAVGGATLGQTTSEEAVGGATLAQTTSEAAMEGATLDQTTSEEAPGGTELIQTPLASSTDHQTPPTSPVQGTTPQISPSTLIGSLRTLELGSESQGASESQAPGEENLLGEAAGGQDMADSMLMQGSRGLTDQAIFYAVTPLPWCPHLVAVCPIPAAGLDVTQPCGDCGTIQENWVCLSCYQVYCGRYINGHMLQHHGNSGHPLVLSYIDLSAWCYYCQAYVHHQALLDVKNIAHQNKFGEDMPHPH

[2] = biological target: Histone deacetylase 5 (Homo sapiens) (UniProt Q9UQL6); assay: Activity of HDAC5 at 10 uM
Sequence of Histone deacetylase 5 (Homo sapiens) (Q9UQL6 whole entry): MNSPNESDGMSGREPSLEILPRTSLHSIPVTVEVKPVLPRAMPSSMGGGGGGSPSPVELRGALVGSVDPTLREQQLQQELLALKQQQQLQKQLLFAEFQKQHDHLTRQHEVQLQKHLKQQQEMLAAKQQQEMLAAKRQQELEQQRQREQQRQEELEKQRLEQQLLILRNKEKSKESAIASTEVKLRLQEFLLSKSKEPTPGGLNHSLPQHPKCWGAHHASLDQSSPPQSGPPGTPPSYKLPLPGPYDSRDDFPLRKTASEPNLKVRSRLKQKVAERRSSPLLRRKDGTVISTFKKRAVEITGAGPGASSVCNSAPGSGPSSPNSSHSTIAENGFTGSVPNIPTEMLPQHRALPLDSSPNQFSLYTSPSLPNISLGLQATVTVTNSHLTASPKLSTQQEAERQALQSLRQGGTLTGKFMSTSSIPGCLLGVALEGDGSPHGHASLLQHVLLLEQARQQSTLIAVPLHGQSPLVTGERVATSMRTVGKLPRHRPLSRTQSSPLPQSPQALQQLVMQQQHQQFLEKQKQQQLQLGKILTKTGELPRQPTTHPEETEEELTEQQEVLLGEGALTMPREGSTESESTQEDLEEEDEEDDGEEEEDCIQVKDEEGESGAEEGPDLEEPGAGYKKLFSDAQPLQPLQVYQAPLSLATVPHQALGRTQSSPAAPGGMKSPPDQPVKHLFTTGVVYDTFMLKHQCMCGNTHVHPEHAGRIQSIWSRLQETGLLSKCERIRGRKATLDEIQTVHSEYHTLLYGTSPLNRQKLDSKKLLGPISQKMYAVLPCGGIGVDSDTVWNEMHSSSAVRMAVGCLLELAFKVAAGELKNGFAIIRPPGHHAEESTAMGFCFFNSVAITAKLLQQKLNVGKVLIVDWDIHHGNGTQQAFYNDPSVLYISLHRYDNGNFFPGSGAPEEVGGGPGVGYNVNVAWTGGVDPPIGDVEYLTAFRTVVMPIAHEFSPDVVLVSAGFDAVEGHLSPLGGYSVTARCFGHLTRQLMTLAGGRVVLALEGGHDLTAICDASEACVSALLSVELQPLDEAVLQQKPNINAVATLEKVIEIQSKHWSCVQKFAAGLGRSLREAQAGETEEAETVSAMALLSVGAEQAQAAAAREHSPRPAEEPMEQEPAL

[3] = biological target: Histone deacetylase 4 (Homo sapiens) (UniProt P56524); assay: Activity of HDAC4 at 10 uM
Sequence of Histone deacetylase 4 (Homo sapiens) (P56524 whole entry): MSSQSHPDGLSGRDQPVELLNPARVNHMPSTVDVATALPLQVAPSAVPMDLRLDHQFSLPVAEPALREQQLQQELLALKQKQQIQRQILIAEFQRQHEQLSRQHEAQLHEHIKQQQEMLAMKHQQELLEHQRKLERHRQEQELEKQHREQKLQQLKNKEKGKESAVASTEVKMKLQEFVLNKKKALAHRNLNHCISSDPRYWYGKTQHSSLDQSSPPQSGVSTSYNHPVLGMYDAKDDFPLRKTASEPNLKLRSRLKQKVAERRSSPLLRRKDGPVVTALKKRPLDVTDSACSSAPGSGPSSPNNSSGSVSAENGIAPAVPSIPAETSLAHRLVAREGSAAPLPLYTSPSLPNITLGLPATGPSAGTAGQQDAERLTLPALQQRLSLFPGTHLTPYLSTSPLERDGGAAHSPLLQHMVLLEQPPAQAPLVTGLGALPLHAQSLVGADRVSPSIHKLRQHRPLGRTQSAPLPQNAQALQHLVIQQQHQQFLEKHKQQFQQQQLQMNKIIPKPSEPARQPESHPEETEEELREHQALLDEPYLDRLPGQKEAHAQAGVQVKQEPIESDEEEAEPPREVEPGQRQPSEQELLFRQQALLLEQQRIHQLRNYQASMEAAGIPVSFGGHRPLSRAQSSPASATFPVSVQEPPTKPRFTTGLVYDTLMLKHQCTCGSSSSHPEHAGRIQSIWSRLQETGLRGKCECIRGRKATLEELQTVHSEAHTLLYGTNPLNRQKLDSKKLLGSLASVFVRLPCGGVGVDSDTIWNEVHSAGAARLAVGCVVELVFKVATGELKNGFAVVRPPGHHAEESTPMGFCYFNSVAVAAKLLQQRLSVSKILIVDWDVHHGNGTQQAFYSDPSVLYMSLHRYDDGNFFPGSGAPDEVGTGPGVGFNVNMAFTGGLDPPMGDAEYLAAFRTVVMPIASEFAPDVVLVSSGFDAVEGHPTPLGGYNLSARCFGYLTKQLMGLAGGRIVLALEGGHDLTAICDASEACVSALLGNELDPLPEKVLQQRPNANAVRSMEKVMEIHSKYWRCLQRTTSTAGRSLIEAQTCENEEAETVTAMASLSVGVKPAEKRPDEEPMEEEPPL

[4] = biological target: T2, Histone deacetylase 8 (Homo sapiens) (UniProt Q9BY41); assay: Activity of HDAC8 at 10 uM
T2 sequence (whole entry): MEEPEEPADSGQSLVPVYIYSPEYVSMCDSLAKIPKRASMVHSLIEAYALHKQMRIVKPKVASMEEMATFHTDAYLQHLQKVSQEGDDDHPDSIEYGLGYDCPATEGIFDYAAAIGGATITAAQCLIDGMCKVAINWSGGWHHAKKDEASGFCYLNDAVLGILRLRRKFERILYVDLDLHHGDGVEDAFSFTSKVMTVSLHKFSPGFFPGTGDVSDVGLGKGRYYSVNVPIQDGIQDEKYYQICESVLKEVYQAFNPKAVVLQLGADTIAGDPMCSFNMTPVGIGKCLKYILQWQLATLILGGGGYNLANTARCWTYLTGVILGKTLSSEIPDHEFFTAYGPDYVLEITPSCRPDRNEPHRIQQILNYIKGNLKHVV

[5] = biological target: T3, Histone deacetylase 7 (Homo sapiens) (UniProt Q8WUI4); assay: Activity of HDAC7 at 10 uM
T3 sequence (whole entry): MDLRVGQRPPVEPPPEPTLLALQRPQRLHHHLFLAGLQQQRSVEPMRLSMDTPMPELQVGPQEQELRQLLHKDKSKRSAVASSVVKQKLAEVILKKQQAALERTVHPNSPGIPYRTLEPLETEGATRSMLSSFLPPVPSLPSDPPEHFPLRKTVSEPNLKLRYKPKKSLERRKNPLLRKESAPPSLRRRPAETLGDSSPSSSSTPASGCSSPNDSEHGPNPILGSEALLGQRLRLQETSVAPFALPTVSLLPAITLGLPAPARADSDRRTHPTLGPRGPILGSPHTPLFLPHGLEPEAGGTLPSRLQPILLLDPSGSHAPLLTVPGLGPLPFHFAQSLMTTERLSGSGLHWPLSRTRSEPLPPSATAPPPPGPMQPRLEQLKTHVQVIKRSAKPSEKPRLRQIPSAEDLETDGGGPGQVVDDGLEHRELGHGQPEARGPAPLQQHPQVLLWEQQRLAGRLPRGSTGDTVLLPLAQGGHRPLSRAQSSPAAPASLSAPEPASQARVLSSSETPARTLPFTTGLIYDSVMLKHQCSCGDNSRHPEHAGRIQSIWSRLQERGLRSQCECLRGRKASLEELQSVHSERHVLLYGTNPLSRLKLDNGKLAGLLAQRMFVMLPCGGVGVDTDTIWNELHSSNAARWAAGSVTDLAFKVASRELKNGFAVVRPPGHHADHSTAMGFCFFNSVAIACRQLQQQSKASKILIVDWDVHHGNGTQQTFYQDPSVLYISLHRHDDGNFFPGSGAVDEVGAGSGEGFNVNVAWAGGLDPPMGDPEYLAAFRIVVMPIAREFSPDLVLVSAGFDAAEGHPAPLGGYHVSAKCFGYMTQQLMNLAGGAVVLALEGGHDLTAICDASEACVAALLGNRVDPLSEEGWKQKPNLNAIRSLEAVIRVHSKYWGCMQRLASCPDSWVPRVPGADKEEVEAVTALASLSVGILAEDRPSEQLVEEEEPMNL

[6] = biological target: Histone deacetylase 9 (Homo sapiens) (UniProt Q9UKV0); assay: Activity of HDAC9 at 10 uM
Sequence of Histone deacetylase 9 (Homo sapiens) (Q9UKV0 whole entry): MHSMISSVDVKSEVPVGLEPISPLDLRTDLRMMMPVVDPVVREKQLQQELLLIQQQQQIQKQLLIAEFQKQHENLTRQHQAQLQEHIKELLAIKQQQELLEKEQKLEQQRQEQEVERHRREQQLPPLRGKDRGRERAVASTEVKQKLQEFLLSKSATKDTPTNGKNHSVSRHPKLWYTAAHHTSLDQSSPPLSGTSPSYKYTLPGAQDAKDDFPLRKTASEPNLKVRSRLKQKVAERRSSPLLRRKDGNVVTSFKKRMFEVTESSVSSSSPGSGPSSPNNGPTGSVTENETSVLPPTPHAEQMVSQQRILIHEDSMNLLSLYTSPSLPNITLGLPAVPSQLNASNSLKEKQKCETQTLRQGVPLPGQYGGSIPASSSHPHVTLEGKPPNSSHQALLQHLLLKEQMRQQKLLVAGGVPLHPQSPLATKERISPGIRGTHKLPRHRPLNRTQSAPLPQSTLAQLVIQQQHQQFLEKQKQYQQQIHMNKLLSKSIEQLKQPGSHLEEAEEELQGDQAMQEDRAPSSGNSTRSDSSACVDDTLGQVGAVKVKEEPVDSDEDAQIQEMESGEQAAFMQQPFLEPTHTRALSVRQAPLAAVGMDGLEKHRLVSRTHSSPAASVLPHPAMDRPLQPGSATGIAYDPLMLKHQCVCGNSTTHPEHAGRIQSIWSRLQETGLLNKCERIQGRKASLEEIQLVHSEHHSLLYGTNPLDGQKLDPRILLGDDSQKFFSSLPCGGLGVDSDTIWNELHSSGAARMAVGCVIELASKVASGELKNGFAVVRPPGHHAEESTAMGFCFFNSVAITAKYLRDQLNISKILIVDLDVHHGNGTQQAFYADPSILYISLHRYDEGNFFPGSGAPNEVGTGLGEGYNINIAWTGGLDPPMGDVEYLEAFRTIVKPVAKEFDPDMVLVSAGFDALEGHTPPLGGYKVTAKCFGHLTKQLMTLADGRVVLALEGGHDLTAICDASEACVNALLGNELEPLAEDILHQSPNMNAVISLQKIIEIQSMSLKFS

O=C(/C=C/c1ccc(C(=O)N/N=C/c2ccc(O)c(O)c2O)cc1)NO
active: inhibition [1] Dose-dependent effect

CC(=O)N[C@@H](CC(C)C)C(=O)NCC(=O)N[C@@H](CCCCNC(=O)C(F)(F)F)C(=O)Nc1ccc2c(C)cc(=O)oc2c1 (Ac-Leu-Gly-Lys(Tfa)-{AMC})
active: Activity [2] | Activity [3] | Activity [4] | Activity [5] | Activity [6]
